Source: BigSolDB 2.1

Cn1cc[nH]c1=S
solubility (mole fraction)
Details | 278.15 K | 283.15 K | 288.15 K | 293.15 K | 298.15 K | 303.15 K | 308.15 K | 313.15 K | 318.15 K | 323.15 K
in 1,4-dioxane | 0.0435 | 0.0517 | 0.0616 | 0.0731 | 0.0874 | 0.102 | 0.119 | 0.141 | 0.164 | 0.187
in THF | 0.0475 | 0.0542 | 0.0634 | 0.0733 | 0.0841 | 0.0972 | 0.112 | 0.13 | 0.148 | 0.169
in acetone | 0.0425 | 0.0517 | 0.0623 | 0.0749 | 0.0889 | 0.107 | 0.124 | 0.147 | 0.167 | 0.193
in acetonitrile | 0.016 | 0.0216 | 0.0267 | 0.0338 | 0.0416 | 0.0531 | 0.0668 | 0.0818 | 0.101 | 0.121
in ethanol | 0.0275 | 0.0335 | 0.0417 | 0.0519 | 0.0645 | 0.0795 | 0.0968 | 0.117 | 0.139 | 0.167
in ethyl acetate | 0.0159 | 0.018 | 0.0198 | 0.022 | 0.0246 | 0.0273 | 0.0306 | 0.0339 | 0.038 | 0.0428
in isobutanol | 0.019 | 0.0233 | 0.0289 | 0.0365 | 0.0439 | 0.0542 | 0.0656 | 0.0809 | 0.0966 | 0.117
in isopropanol | 0.0168 | 0.0225 | 0.029 | 0.0381 | 0.0478 | 0.0621 | 0.0788 | 0.0985 | 0.123 | 0.152
in methanol | 0.06 | 0.0711 | 0.084 | 0.0996 | 0.125 | 0.148 | 0.177 | 0.21 | 0.244 | 0.283
in methyl acetate | 0.0288 | 0.0337 | 0.0391 | 0.0452 | 0.0521 | 0.0593 | 0.07 | 0.0817 | 0.0936 | 0.107
in n-butanol | 0.0194 | 0.026 | 0.0328 | 0.0414 | 0.0528 | 0.0665 | 0.0823 | 0.102 | 0.124 | 0.153
in n-propanol | 0.0261 | 0.032 | 0.0385 | 0.0468 | 0.0558 | 0.0663 | 0.0786 | 0.0931 | 0.111 | 0.13
